Assay [1] addresses T1, IL-7Rα subunit (Homo sapiens, UniProt P16871).
T1 construct: human IL-7Rα (CD127 protein, Fc Tag) (21-236); Fc; purchased ACRObiosystems, Inc. ILB-H5258
Briefly: competitive binding assay, specific binding site on the IL-7Rα subunit. As to conditions: specific binding site distinct from that of IL-7.

Assay [2] deals with T2, IL-2Rβ subunit (Homo sapiens, UniProt P14784).
T2 construct: human IL-2Rβ (CD122 protein, Fc Tag) (27-239); Fc; purchased ACRObiosystems, Inc. ILB-H5253
Briefly: competitive binding assay, specific binding site on the IL-2Rβ subunit.

T2 sequence (P14784 27-239): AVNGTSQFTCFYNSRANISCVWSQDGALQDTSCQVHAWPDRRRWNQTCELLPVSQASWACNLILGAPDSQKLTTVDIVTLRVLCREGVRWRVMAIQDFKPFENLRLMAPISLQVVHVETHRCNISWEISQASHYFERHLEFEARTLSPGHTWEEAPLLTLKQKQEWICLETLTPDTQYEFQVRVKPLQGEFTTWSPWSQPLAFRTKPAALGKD
T1 sequence (P16871 21-236): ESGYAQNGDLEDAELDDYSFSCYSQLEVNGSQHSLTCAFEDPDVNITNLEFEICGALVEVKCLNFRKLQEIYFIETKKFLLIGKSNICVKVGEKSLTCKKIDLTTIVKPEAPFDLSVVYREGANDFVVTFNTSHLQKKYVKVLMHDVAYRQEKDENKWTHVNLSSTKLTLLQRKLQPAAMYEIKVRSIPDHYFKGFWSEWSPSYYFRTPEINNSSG

What is called IC50 is the midpoint of a concentration-inhibition curve. A high value points to lower potency. Consider `CC(C)C[C@@H]1NC(=O)[C@H](CO)NC(=O)CNC(=O)[C@@H]2CCCN2C(=O)[C@H](CC(=O)O)NC(=O)[C@H](CC(C)C)NC(=O)[C@H]([C@@H](C)O)NC(=O)[C@@H](NC(=O)[C@H](Cc2c[nH]c3ccccc23)NC(=O)[C@@H]2CCCN2C(=O)[C@@H](N)C(C)C)CSSC[C@@H](C(=O)N[C@@H](C)C(=O)N[C@@H](Cc2c[nH]c3ccccc23)C(=O)N[C@@H](Cc2ccccc2)C(=O)O)NC(=O)[C@H](CCC(N)=O)NC1=O` [SEQ ID NO: 2313, V P W C T L D P G S L Q C A W F], for which, in assay [1], the IC50 was below 10 µM.

`CC[C@H](C)[C@@H]1NC(=O)[C@H](CCCNC(=N)N)NC(=O)[C@@H](NC(=O)[C@H](CC(=O)O)NC(=O)[C@@H](N)Cc2ccc(O)cc2)CSSC[C@@H](C(=O)N[C@@H](CC(=O)O)C(=O)N[C@@H](CC(C)C)C(=O)O)NC(=O)[C@H](CC(C)C)NC(=O)[C@H](CCC(=O)O)NC(=O)CNC(=O)[C@H](C(C)C)NC(=O)[C@H](CCC(N)=O)NC(=O)[C@H](C)NC1=O` [SEQ ID NO: 154, Y D C R I A Q V G E L C D L] showed an IC50 in assay [2] below 10 µM.

With `CC[C@H](C)[C@@H]1NC(=O)[C@H](CCC(=O)O)NC(=O)[C@H](C)NC(=O)[C@@H](NC(=O)[C@H](Cc2ccc(O)cc2)NC(=O)[C@@H](N)C(C)C)CSSC[C@@H](C(=O)N[C@@H](CCCNC(=N)N)C(=O)N[C@@H](CCC(N)=O)C(=O)O)NC(=O)[C@H](C(C)C)NC(=O)[C@H](CCCNC(=N)N)NC(=O)[C@H](Cc2ccc(O)cc2)NC(=O)[C@H](CCC(=O)O)NC(=O)CNC1=O` [SEQ ID NO: 2043, V Y C A E I G E Y R V C R Q], in assay [1], the IC50 is below 10 µM.

Consider `CC[C@H](C)[C@@H]1NC(=O)[C@@H](NC(=O)[C@@H](N)CCC(N)=O)CSSC[C@@H](C(=O)N[C@H](C(=O)O)C(C)C)NC(=O)[C@H](CO)NC(=O)[C@H](CC(C)C)NC(=O)[C@H](CC(C)C)NC(=O)[C@H]([C@@H](C)O)NC(=O)[C@H](CCC(=O)O)NC(=O)[C@H]([C@@H](C)CC)NC(=O)[C@H](CC(=O)O)NC(=O)[C@H](Cc2c[nH]c3ccccc23)NC(=O)[C@H](Cc2c[nH]cn2)NC1=O` [SEQ ID NO: 2159, Q C I H W D I E T L L S C V], for which the 50% inhibitory concentration (IC50) in assay [1] is below 10 µM.

The compound `CSCC[C@H](NC(=O)[C@H](CC(C)C)NC(=O)[C@H](CC(C)C)NC(=O)[C@H](CC(=O)O)NC(=O)CNC(=O)[C@@H](NC(=O)[C@H](CC(=O)O)NC(=O)CNC(=O)[C@H](Cc1c[nH]c2ccccc12)NC(=O)[C@@H](N)CCCNC(=N)N)C(C)C)C(=O)N1CCC[C@H]1C(=O)N[C@@H](CC(C)C)C(=O)O` [SEQ ID NO: 209, R W G D V G D L L M P L] returned a half-inhibitory concentration (IC50) in assay [2] below 10 µM.

`CC[C@H](C)[C@H](NC(=O)[C@H](CCC(N)=O)NC(=O)[C@@H]1CSSC[C@H](NC(=O)[C@H](CCSC)NC(=O)[C@@H](N)CC(N)=O)C(=O)N[C@@H](CC(C)C)C(=O)N[C@@H](C(C)C)C(=O)NCC(=O)N[C@@H](CC(=O)O)C(=O)N[C@@H](Cc2ccc(O)cc2)C(=O)N[C@@H](Cc2c[nH]c3ccccc23)C(=O)N2CCC[C@H]2C(=O)N[C@@H](CO)C(=O)N1)C(=O)O` [SEQ ID NO: 180, N M C L V G D Y W P S C Q I] came in with a half-inhibitory concentration (IC50) in assay [2] below 10 µM.

The values are drawn from patent publication US11248030B2, “Dual IL-2R and IL-7R binding compounds” (MEDIKINE, INC., priority 2019, dated 2022).
